According to ChEMBL document CHEMBL5131424, “Synthesis and evaluation of antibacterial and trypanocidal activity of derivatives of monensin A” (Bioorg Med Chem Lett, 2022):
≈ marks a conversion by molar mass, not a printed value.

How the values were obtained:
[1] = tested on: Staphylococcus epidermidis; experiment: Antibacterial activity against Staphylococcus epidermidis 829/19; type: functional
[2] = tested on: Staphylococcus aureus; experiment: Antibacterial activity against Staphylococcus aureus ATCC 6538; type: functional
[3] = tested on: Staphylococcus aureus; experiment: Antibacterial activity against Staphylococcus aureus ATCC 29213; type: functional
[4] = tested on: Pseudomonas aeruginosa; experiment: Antibacterial activity against Pseudomonas aeruginosa ATCC 15442; type: functional
[5] = tested on: Staphylococcus epidermidis; experiment: Antibacterial activity against Staphylococcus epidermidis 851/19; type: functional
[6] = tested on: Staphylococcus epidermidis; experiment: Antibacterial activity against Staphylococcus epidermidis 830/19; type: functional
[7] = tested on: Staphylococcus epidermidis; experiment: Antibacterial activity against Staphylococcus epidermidis ATCC 12228; type: functional
[8] = tested on: Pseudomonas aeruginosa; experiment: Antibacterial activity against Pseudomonas aeruginosa […]; type: functional
[9] = tested on: Staphylococcus aureus; experiment: Antibacterial activity against Staphylococcus aureus ATCC 25923; type: functional
[10] = Selectivity ratio of GI50 for cytotoxicity against human HL-60 cells to GI50 for antitrypanosomal activity against bloodstream form of Trypanosoma brucei clone 427-221a; type: toxicity, cell-based; details: read-out: RatioGI50
[11] = tested on: Escherichia coli; experiment: Antibacterial activity against Escherichia coli ATCC 25922; type: functional
[12] = tested on: Staphylococcus epidermidis; experiment: Antibacterial activity against Staphylococcus epidermidis 834/19; type: functional
[13] = tested on: Trypanosoma brucei; experiment: Antitrypanosomal activity against bloodstream form of Trypanosoma brucei clone 427-221a measured after 24 hrs by resazurin dye based assay; type: functional
[14] = tested on: Escherichia coli; experiment: Antibacterial activity against Escherichia coli NCTC 10538; type: functional
[15] = tested on: HL-60; experiment: (§1) Cytotoxicity against human HL-60 cells assessed as reduction in cell viability measured after 24 hrs by resazurin dye based assay; type: toxicity; details: hl-60, 24 h
[16] = as §1; type: toxicity; details: HL-60 cells
[17] = tested on: Staphylococcus epidermidis; experiment: Antibacterial activity against Staphylococcus epidermidis 848/19; type: functional
[18] = Selectivity ratio of MIC for cytotoxicity against human HL-60 cells to MIC for antitrypanosomal activity against bloodstream form of Trypanosoma brucei clone 427-221a; type: toxicity, cell-based
[19] = tested on: Staphylococcus epidermidis; experiment: Antibacterial activity against Staphylococcus epidermidis 840/19; type: functional
[20] = tested on: Staphylococcus aureus; experiment: Antibacterial activity against Staphylococcus aureus NCTC 4163; type: functional
[21] = tested on: Staphylococcus epidermidis; experiment: Antibacterial activity against Staphylococcus epidermidis 825/19; type: functional
[22] = tested on: Staphylococcus epidermidis; experiment: Antibacterial activity against Staphylococcus epidermidis 845/19; type: functional
[23] = tested on: Staphylococcus epidermidis; experiment: Antibacterial activity against Staphylococcus epidermidis ATCC 35984; type: functional

SMILES | MIC [1] | MIC [4] | MIC [5] | MIC [6] | MIC [7] | MIC [8] | MIC [9] | selectivity ratio [10] | MIC [12] | GI50 [13] | MIC [13] | MIC [15] | GI50 at 24 h [16] | MIC [17] | selectivity ratio [18] | MIC [19] | MIC [20] | MIC [21] | MIC [22] | MIC [23] | also measured
CO[C@H]([C@H](C)[C@H]1O[C@@]2(CC[C@@](C)([C@H]3CC[C@@](CO)([C@@H]4O[C@@H]([C@H]5O[C@@](O)(COC(=O)NCCCl)[C@H](C)C[C@@H]5C)C[C@@H]4C)O3)O2)C[C@H](O)[C@H]1C)[C@H](C)C(=O)O | 4 µg/mL (≈ 5.14 µM) | > 256 µg/mL | 4 µg/mL (≈ 5.14 µM) | 4 µg/mL (≈ 5.14 µM) | 2 µg/mL (≈ 2.57 µM) | > 256 µg/mL | 2 µg/mL (≈ 2.57 µM) | 6.4 | 4 µg/mL (≈ 5.14 µM) | 3480 nM | 10 µM (≈ 7.78 µg/mL) | 100 µM (≈ 77.8 µg/mL) | 22.4 µM | 4 µg/mL (≈ 5.14 µM) | 10 | 4 µg/mL (≈ 5.14 µM) | 2 µg/mL (≈ 2.57 µM) | 2 µg/mL (≈ 2.57 µM) | 4 µg/mL (≈ 5.14 µM) | 8 µg/mL (≈ 10.3 µM) | MIC [2]: 4 µg/mL (≈ 5.14 µM); MIC [3]: 2 µg/mL (≈ 2.57 µM); MIC [11]: > 256 µg/mL; MIC [14]: > 256 µg/mL
CCCNC(=O)OC[C@]1(O)O[C@H]([C@H]2C[C@H](C)[C@H]([C@]3(CO)CC[C@H]([C@]4(C)CC[C@]5(C[C@H](O)[C@@H](C)[C@@H]([C@@H](C)[C@@H](OC)[C@H](C)C(=O)O)O5)O4)O3)O2)[C@@H](C)C[C@H]1C | 4 µg/mL (≈ 5.28 µM) | > 256 µg/mL | 4 µg/mL (≈ 5.28 µM) | 4 µg/mL (≈ 5.28 µM) | 4 µg/mL (≈ 5.28 µM) | > 256 µg/mL | 2 µg/mL (≈ 2.64 µM) | 8.3 | 4 µg/mL (≈ 5.28 µM) | 2940 nM | 10 µM (≈ 7.58 µg/mL) | 100 µM (≈ 75.8 µg/mL) | 24.5 µM | 4 µg/mL (≈ 5.28 µM) | 10 | 4 µg/mL (≈ 5.28 µM) | 2 µg/mL (≈ 2.64 µM) | 2 µg/mL (≈ 2.64 µM) | 4 µg/mL (≈ 5.28 µM) | 8 µg/mL (≈ 10.6 µM) | MIC [2]: 2 µg/mL (≈ 2.64 µM); MIC [3]: 4 µg/mL (≈ 5.28 µM); MIC [11]: > 256 µg/mL; MIC [14]: > 256 µg/mL
CCNC(=O)OC[C@]1(O)O[C@H]([C@H]2C[C@H](C)[C@H]([C@]3(CO)CC[C@H]([C@]4(C)CC[C@]5(C[C@H](O)[C@@H](C)[C@@H]([C@@H](C)[C@@H](OC)[C@H](C)C(=O)O)O5)O4)O3)O2)[C@@H](C)C[C@H]1C | 8 µg/mL (≈ 10.8 µM) | > 256 µg/mL | 16 µg/mL (≈ 21.5 µM) | 8 µg/mL (≈ 10.8 µM) | 8 µg/mL (≈ 10.8 µM) | > 256 µg/mL | 4 µg/mL (≈ 5.38 µM) | 28.1 | 4 µg/mL (≈ 5.38 µM) | 3050 nM | 10 µM (≈ 7.44 µg/mL) | 100 µM (≈ 74.4 µg/mL) | 85.8 µM | 16 µg/mL (≈ 21.5 µM) | 10 | 8 µg/mL (≈ 10.8 µM) | 8 µg/mL (≈ 10.8 µM) | 8 µg/mL (≈ 10.8 µM) | 8 µg/mL (≈ 10.8 µM) | 16 µg/mL (≈ 21.5 µM) | MIC [2]: 8 µg/mL (≈ 10.8 µM); MIC [3]: 8 µg/mL (≈ 10.8 µM); MIC [11]: > 256 µg/mL; MIC [14]: > 256 µg/mL
CO[C@H]([C@H](C)[C@H]1O[C@@]2(CC[C@@](C)([C@H]3CC[C@@](CO)([C@@H]4O[C@@H]([C@H]5O[C@@](O)(COC(=O)NCCCCl)[C@H](C)C[C@@H]5C)C[C@@H]4C)O3)O2)C[C@H](O)[C@H]1C)[C@H](C)C(=O)O | 4 µg/mL (≈ 5.05 µM) | > 256 µg/mL | 4 µg/mL (≈ 5.05 µM) | 4 µg/mL (≈ 5.05 µM) | 4 µg/mL (≈ 5.05 µM) | > 256 µg/mL | 2 µg/mL (≈ 2.52 µM) | 5.9 | 4 µg/mL (≈ 5.05 µM) | 3050 nM | 10 µM (≈ 7.92 µg/mL) | 100 µM (≈ 79.2 µg/mL) | 18.1 µM | 8 µg/mL (≈ 10.1 µM) | 10 | 8 µg/mL (≈ 10.1 µM) | 2 µg/mL (≈ 2.52 µM) | 2 µg/mL (≈ 2.52 µM) | 4 µg/mL (≈ 5.05 µM) | 4 µg/mL (≈ 5.05 µM) | MIC [2]: 2 µg/mL (≈ 2.52 µM); MIC [3]: 4 µg/mL (≈ 5.05 µM); MIC [11]: > 256 µg/mL; MIC [14]: > 256 µg/mL
CO[C@H]([C@H](C)[C@H]1O[C@@]2(CC[C@@](C)([C@H]3CC[C@@](CO)([C@@H]4O[C@@H]([C@H]5O[C@@](O)(COC(=O)NCc6ccccc6)[C@H](C)C[C@@H]5C)C[C@@H]4C)O3)O2)C[C@H](O)[C@H]1C)[C@H](C)C(=O)O | 2 µg/mL (≈ 2.48 µM) | > 256 µg/mL | 2 µg/mL (≈ 2.48 µM) | 2 µg/mL (≈ 2.48 µM) | 1 µg/mL (≈ 1.24 µM) | > 256 µg/mL | 1 µg/mL (≈ 1.24 µM) | 62.9 | 2 µg/mL (≈ 2.48 µM) | 310 nM | 1 µM (≈ 0.806 µg/mL) | 100 µM (≈ 80.6 µg/mL) | 19.5 µM | 2 µg/mL (≈ 2.48 µM) | 100 | 2 µg/mL (≈ 2.48 µM) | 1 µg/mL (≈ 1.24 µM) | 1 µg/mL (≈ 1.24 µM) | 2 µg/mL (≈ 2.48 µM) | 2 µg/mL (≈ 2.48 µM) | MIC [2]: 1 µg/mL (≈ 1.24 µM); MIC [3]: 2 µg/mL (≈ 2.48 µM); MIC [11]: > 256 µg/mL; MIC [14]: > 256 µg/mL
CCCCNC(=O)OC[C@]1(O)O[C@H]([C@H]2C[C@H](C)[C@H]([C@]3(CO)CC[C@H]([C@]4(C)CC[C@]5(C[C@H](O)[C@@H](C)[C@@H]([C@@H](C)[C@@H](OC)[C@H](C)C(=O)O)O5)O4)O3)O2)[C@@H](C)C[C@H]1C | 1 µg/mL (≈ 1.3 µM) | > 256 µg/mL | 2 µg/mL (≈ 2.59 µM) | 1 µg/mL (≈ 1.3 µM) | 1 µg/mL (≈ 1.3 µM) | > 256 µg/mL | 1 µg/mL (≈ 1.3 µM) | 24.3 | 2 µg/mL (≈ 2.59 µM) | 470 nM | 10 µM (≈ 7.72 µg/mL) | 100 µM (≈ 77.2 µg/mL) | 11.4 µM | 2 µg/mL (≈ 2.59 µM) | 19 | 2 µg/mL (≈ 2.59 µM) | 1 µg/mL (≈ 1.3 µM) | 1 µg/mL (≈ 1.3 µM) | 2 µg/mL (≈ 2.59 µM) | 1 µg/mL (≈ 1.3 µM) | MIC [2]: 1 µg/mL (≈ 1.3 µM); MIC [3]: 2 µg/mL (≈ 2.59 µM); MIC [11]: > 256 µg/mL; MIC [14]: > 256 µg/mL
O=C(O)c1cn(C2CC2)c2cc(N3CCNCC3)c(F)cc2c1=O [CIPROFLOXACIN] | ≤ 0.125 µg/mL | < 0.125 µg/mL | ≤ 0.125 µg/mL | 64 µg/mL (≈ 193 µM) | 0.5 µg/mL (≈ 1.51 µM) | < 0.125 µg/mL | 0.5 µg/mL (≈ 1.51 µM) | – | ≤ 0.125 µg/mL | – | – | – | – | ≤ 0.125 µg/mL | – | ≤ 0.125 µg/mL | 0.25 µg/mL (≈ 0.754 µM) | 4 µg/mL (≈ 12.1 µM) | 16 µg/mL (≈ 48.3 µM) | 0.25 µg/mL (≈ 0.754 µM) | –
Cc1ccc(C(=O)Nc2ccc(S(=O)(=O)O)c3cc(S(=O)(=O)O)cc(S(=O)(=O)O)c23)cc1NC(=O)c1cccc(NC(=O)Nc2cccc(C(=O)Nc3cc(C(=O)Nc4ccc(S(=O)(=O)O)c5cc(S(=O)(=O)O)cc(S(=O)(=O)O)c45)ccc3C)c2)c1 [SURAMIN] | – | – | – | – | – | – | – | > 2000 | – | 50 nM | 1 µM (≈ 1.3 µg/mL) | > 100 µM | > 100 µM | – | > 100 | – | – | – | – | – | –
